This is an account of results in US7425568B2, “Compounds, which are potent inhibitors of Na+ /Ca2+ exchange mechanism and are useful in the treatment of arrhythmias” (Orion Corporation, priority 2001, dated 2008).

For this assay, the system named is ouabain-induced arrhythmias in guinea-pig papillary muscles. As to the kind of experiment: Inhibition of ouabain-induced arrhythmias (aftercontractions) in isolated guinea-pig papillary muscles. To be noted: for maximum amplitude of aftercontractions #1: n=5, vehicle 143±54 mg. On the procedure:
The effects of the compounds of the invention were tested on ouabain-induced arrhythmias in guinea-pig papillary muscles.
Guinea-pig papillary muscles were mounted into horizontal muscle cuvette. A hook connected to force transducer was attached to another end of the muscle. Muscle preparations were electrically paced at 1 Hz with field stimulation via platinum electrodes. Modified Tyrode solution was used for superfusion of muscle preparations. The composition of the Tyrode solution was the following (mM): NaCl 135, MgCl2×6H2O 1, KCl 5, CaCl2×2H2O 2, NaHCO3 15, Na2HPO4×2H2O 1, and glucose 10. The Tyrode solution was gassed with carbogen (95% O2, 5% CO2) to set pH at 7.4. Experiments were carried out at 37° C. Acquisition and analysis of twitch tensions with Action Potential and Force Measurement System (ACFO v1.0, Fision Ltd, Finland).
Ouabain by blocking of sodium-potassium ATPase increase intracellular sodium which is changed for calcium via NCX. Increased intracellular calcium is leading to overload of sarcoplasmic reticulum (SR) and spontaneous calcium release from SR inducing delayed […] (DADs). Equivalence for DADs in force signal is aftercontractions (ACs) which are seen as spontaneous twitches after the pacing controlled twitch.
The compounds of the invention delayed appearance and decreased amplitude of aftercontractions.

As for `CC(=O)Nc1ccc(Oc2ccc3c(c2)CCC(c2ccccc2)O3)nc1` (stereo not drawn) [Example 27], under “30 μM, mean±SD, n=5, vehicle 25±8.9 min, p=0.013, paced at 1 Hz, 37° C”, the “appearance of aftercontractions (time to appearance)” value came to 38 ± 7.5 min. The “maximum amplitude of aftercontractions #1” value (30 μM, p=0.008) was 74 ± 16 mg.
As to `CS(=O)(=O)Nc1ccc(Oc2ccc3c(c2)CCC(c2cccc(F)c2)O3)nc1` (stereo not drawn) [Example 67, N-{6-[2-(3-Fluorophenyl)chroman-6-yloxy]pyridin-3-yl}methane Sulfonamide], the “maximum amplitude of aftercontractions #1” value (10 μM, p=0.027) was 88 ± 20 mg.
